Patent US20200157135A1, “SIDE-CHAIN MODIFIED ERGOSTEROL AND STIGMASTEROL DERIVATIVES AS LIVER X RECEPTOR MODULATORS” (Ospedale San Raffaele srl, priority 2017, published 2020)
Like-named read-outs stand apart in the source and are kept apart here.

Tests used:
[1] = molecular target: T1, hLXRα (Homo sapiens, UniProt Q13133); assay: luciferase assay with GAL-4 chimeric hLXRα receptor in human embryonic kidney 293 cells; format: cell-based; details: for Emax: HEK293, 24 h, read-out: LXRα Efficacy (%) ± SD; for LXR isoform selectivity profile: LXRα versus LXRβ, GAL4 luciferase assays
T1 sequence (Q13133 209-447 limits assumed): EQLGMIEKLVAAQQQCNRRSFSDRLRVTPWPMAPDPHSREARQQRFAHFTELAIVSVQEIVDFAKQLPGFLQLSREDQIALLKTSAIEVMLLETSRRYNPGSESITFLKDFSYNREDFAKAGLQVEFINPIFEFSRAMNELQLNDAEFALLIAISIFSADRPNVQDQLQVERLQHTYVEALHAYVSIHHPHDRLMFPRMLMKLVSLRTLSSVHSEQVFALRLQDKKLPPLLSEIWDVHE
Protocol: (§1) All the synthesized compounds were first tested for their ability to activate LXRs by using luciferase assays with GAL-4 chimeric receptors. These were performed by co-transfecting plasmids encoding hLXRα- and β-binding domains fused to GAL-4, with the respective responsive element conjugated with the luciferase reporter gene into the human embryonic kidney 293 cells.
(§2) Cell Culture and Co-transfection Assays. Human embryonic Kidney 293 cells (American Type Culture Collection) were cultured in Dulbecco's Modified Eagle's medium containing 10% of fetal bovine serum at 37° C. in humidified atmosphere of 5% CO2. HEK293 cells (4×10^4 cells per well) were transiently transfected in 48 well plate with the reporter plasmids pMH100X4-TK-luc (100 ng/well), Renilla (22 ng/well) together with 100 ng/well of pCMX-Gal4-RXR, pCMX-Gal4-PPAR-γ, pCMX-Gal4-PXR, pFA-CMV-FXR pCMX-Gal4-LXR-α or pCMX-Gal4-LXR-β plasmids using X-tremeGENE 9 DNA Transfection Reagent (Roche). Six hours after transfection, the cells were treated with the appropriate compound for 24 hours. Luciferase activities were analyzed by luciferase Dual Reporter Assay Systems (Promega) according to the manufacturer's protocol. GAL4-LXRs, GAL4-PPAR-γ, GAL4-RXR and TK-MHC100-luc plasmids were described in Villablanca et al.49 GAL4-PXR was a kind gift of Dr. Enrique Sainz (The Scripps Research Institute, La Jolla, USA). GAL4-FXR was a kind gift of Dr. Daniel Merk (Goethe-University Frankfurt am Main). The results obtained by luciferase assays and reported in Table 1 are from three to five independent experiments.
(§3) Statistical analysis. Data are expressed as mean±SEM and were analyzed for significance by ANOVA with Dunnet's multiple comparison tests. The analysis was performed with Prism software. Data in Table 1 are expressed as EC50±SD. In particular, the standard deviations were obtained by calculating the mean of the EC50 of each experiment (three to five independent experiments). The efficacy (%) of the compounds was calculated as the percentage of the compound effect, in terms of LXRα or β activation, versus 8 μM of 22R—HC±SD. The analyses were performed with Prism software.

[2] = test system: hPXR; assay: luciferase assay GAL4-hPXR in human embryonic kidney 293 cells; format: cell-based; details: compounds at 10 μM
Protocol: Human embryonic kidney 293 cells were co-transfected with GAL4-hRXR (A), GAL4-hPPARγ (B), GAL4-hPXR (C) and GAL4-hFXR (D) expression plasmids together with GAL4 responsive element pMHC100X4-TK-luc and Renilla plasmids. Cells were incubated with vehicle (DMSO), PFMs at the concentration of 10 μM, and the nuclear receptor specific ligands 9cis retinoic acid (100 nM) (A), Rosiglitazone (RSG 100 nM) (B), T0901317 (100 nM) (C) and GW4064 (100 nM) (D) for six hours. The values represent mean±S.D. RLA, relative luciferase activity.
The selectivity of our compounds within the nuclear receptor superfamily was also evaluated by luciferase assays using GAL4-RXR, -PPARγ, -PXR and -FXR plasmids.
as §2

[3] = test system: MCP-1/CCL2; assay: qPCR of CCL2 expression in differentiated U937 cells treated with LPS; format: cell-based, human; details: differentiated U937, 6 hours, 10 μM in combination with LPS (100 ng/ml)
Protocol: (§4) U937 cells differentiated with PMA for 72 hours were treated with LPS (100 ng/ml) in combination with T0901317 (10 μM) or with the title compounds (10 μM). […] (n=3/group). *p<0.05, **p<0.01, ***p<0.001.
(§5) Quantitative Real-Time-PCR. U937 cell line was differentiated in foam macrophages with phorbol 12-myristate 13-acetate (PMA) 10 ng/ml (Sigma) for 72 hours at 37° C. in […] at the concentration of 3×10^6 cells in 10 ml RPMI 10% FBS. At day 3 nuclear receptor ligands were added for 6 hours. HepG2 cells were treated with the ligands as described by Quinet et al.22 Total RNA was purified by TRIZOL (Invitrogen, Carlsbad, Calif., USA). Reverse transcription was performed incubating 2 μg of total RNA 1 hour at 42° C. with MLV-reverse transcriptase (Promega). Quantitative PCR was performed using Sybr Green Master Mix (Applied Biosystems) and real-time PCR (Viia 7 Real Time PCR System, Applied Biosystems). All PCR reactions were done in triplicate. The comparative Ct method was used to quantify transcripts that were normalized for human GAPDH. the following primer pairs were used: […]

[4] = test system: TNFα; assay: qPCR of TNFα expression in differentiated U937 cells treated with LPS; format: cell-based, human; details: differentiated U937, 6 hours, 10 μM in combination with LPS (100 ng/ml)
Protocol: as §4, §5

[5] = molecular target: T2, hLXRβ (Homo sapiens, UniProt P55055); assay: luciferase assay with GAL-4 chimeric hLXRβ receptor in human embryonic kidney 293 cells; format: cell-based
T2 sequence (P55055 222-460 limits assumed): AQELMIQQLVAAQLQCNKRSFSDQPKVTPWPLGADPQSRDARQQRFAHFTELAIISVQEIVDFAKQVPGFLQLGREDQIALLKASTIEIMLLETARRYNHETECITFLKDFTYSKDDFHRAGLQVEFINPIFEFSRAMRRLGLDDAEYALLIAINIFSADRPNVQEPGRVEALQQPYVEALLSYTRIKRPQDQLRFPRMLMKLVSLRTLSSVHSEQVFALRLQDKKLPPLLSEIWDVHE
Protocol: as §1, §2, §3

[6] = GAL4-hLXRα luciferase, HEK293, dose-response 32-1 μM, mean of three-five independent experiments, read-out: LXRα EC50 (μM) ± SD
[7] = % of compound effect versus 8 μM of 22R-HC

Compound	EC50 [1, 6] [µM]	Emax [1, 7] [%]	LXR isoform selectivity profile [1]	PXR activation [2]	inhibition of CCL2 expression [3]	further results
CC(C)[C@@H](C)[C@@H](O)C[C@@H](C)[C@H]1CC[C@H]2C3=CC=C4C[C@@H](O)CC[C@]4(C)[C@H]3CC[C@]12C [Compound 21, (23S)-3β-Ergost-5,7-diene-3,23-diol]	8.07 ± 1.6	159 ± 41.3	selective LXRα agonists	slight activation of PXR	same grade of potency of the positive control T0901317	inhibition of TNFα expression [4]: the most active
CC(C)[C@@H](C)C[C@H](O)[C@@H](C)[C@H]1CC[C@H]2C3=CC=C4C[C@@H](O)CC[C@]4(C)[C@H]3CC[C@]12C [Compound 22, (22S)-3β-Ergost-5,7-diene-3,22-diol]	6.61 ± 1.69	–	–	slight activation of PXR	same grade of potency of the positive control T0901317	EC50 ([5]; GAL4-hLXRβ luciferase, HEK293, dose-response 32-1 μM, mean of three-five independent experiments, read-out: LXRβ EC50 (μM) ± SD): 1.96 ± 0.1 µM
CC(C)[C@@H](C)[C@H](O)C[C@@H](C)[C@H]1CC[C@H]2C3=CC=C4C[C@@H](O)CC[C@]4(C)[C@H]3CC[C@]12C [Compound 23, (23R)-3β-Ergost-5,7-diene-3,23-diol]	15.8 ± 0.65	63.9 ± 26.9	–	–	–	–
CC(C)[C@@H](C)C(=O)C[C@@H](C)[C@H]1CC[C@H]2C3=CC=C4C[C@@H](O)CC[C@]4(C)[C@H]3CC[C@]12C [Compound 27, 3β-Hydroxyergost-5,7-diene-23-one]	5.58 ± 0.3	151 ± 4.8	selective LXRα agonists	–	–	–
CC(C)[C@@H](C)CC(=O)[C@@H](C)[C@H]1CC[C@H]2C3=CC=C4C[C@@H](O)CC[C@]4(C)[C@H]3CC[C@]12C [Compound 28, 3β-Hydroxyergost-5,7-diene-22-one]	8.51 ± 0.42	70.2 ± 3.9	selective LXRα agonists	–	–	–
CC[C@](O)(CC[C@@H](C)[C@H]1CCC2C3CC=C4C[C@@H](O)CC[C@]4(C)C3CC[C@@]21C)C(C)C (some centres unmarked) [Compound 29]	–	–	–	–	–	EC50 [1]: 3.72 ± 0.5 µM; Emax [1]: 11 ± 4.08%; EC50 [5]: 3.21 ± 0.6 µM; Emax ([5]; HEK293, 24 h, read-out: LXRβ Efficacy (%) ± SD, % of compound effect versus 8 μM of 22R-HC): 48.4 ± 5%; beta/alfa efficacy ratio ([5]; LXRβ efficacy over LXRα efficacy): 4.4
